Test results as given in US12360111B2, “G protein-coupled receptor screening systems” (The University of North Carolina at Chapel Hill, priority 2018, dated 2025).
“Also recorded” adds a separate entry of the source. Where two headings read alike, the source gives them in different places.

Columns and labels:
[1] = test system: Gα proteins fused to the μ-opioid receptor (MOR); test: Competition radioligand binding at six Gα proteins fused to MOR
[2] = test system: mu-opioid receptor fused to Gαi1-RLuc8 chimera (MOR-Gi1RLuc); settings: for binding to and GPPNHP elution from membranes (in words): unfused MOR vs MOR-Gαi1 membranes
HEK293 cells = test: Calcium release in HEK293 cells without serotonin receptors; format: cell-based; settings: cells do not express serotonin (5-HT) receptors
[3] = test system: 5-HT5A receptor fused to Gi, Gq or Gs; test: [35S]GTPγS loading at 5-HT5A receptor-Gα fusions; format: biochemical; settings: Gi vs Gq vs Gs fusions
[4] = test system: serotonin-5A receptor (HTR5A)-Gαi1 RLuc fusion; test: Fusion BRET at HTR5A-Gαi1 RLuc; format: cell-based
μ-opioid receptor (MOR) = biological target: T1, μ-opioid receptor (MOR) (Homo sapiens, UniProt P35372); test: TRUPATH after alkylation of MOR with β-FNA (receptor reserve); format: cell-based; settings: increasing β-FNA treatment
T1 construct: expressed in transfected cells
T1 sequence (P35372 whole entry): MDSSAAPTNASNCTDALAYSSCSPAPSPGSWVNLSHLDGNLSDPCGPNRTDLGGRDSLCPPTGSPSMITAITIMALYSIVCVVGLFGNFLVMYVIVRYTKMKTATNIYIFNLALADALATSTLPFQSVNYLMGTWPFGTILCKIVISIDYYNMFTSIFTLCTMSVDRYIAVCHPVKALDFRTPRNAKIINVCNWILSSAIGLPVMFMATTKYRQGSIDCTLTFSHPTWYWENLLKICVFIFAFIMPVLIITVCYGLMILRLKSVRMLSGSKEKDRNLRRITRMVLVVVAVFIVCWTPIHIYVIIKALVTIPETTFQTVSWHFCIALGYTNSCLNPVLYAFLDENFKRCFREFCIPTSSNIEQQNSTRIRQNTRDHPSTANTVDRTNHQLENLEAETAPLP

[5] = biological target: T2, KOR, Gαi/o-class TRUPATH sensors (Homo sapiens, UniProt P41145); format: cell-based
T2 construct: expressed in transfected cells
T2 sequence (P41145 whole entry): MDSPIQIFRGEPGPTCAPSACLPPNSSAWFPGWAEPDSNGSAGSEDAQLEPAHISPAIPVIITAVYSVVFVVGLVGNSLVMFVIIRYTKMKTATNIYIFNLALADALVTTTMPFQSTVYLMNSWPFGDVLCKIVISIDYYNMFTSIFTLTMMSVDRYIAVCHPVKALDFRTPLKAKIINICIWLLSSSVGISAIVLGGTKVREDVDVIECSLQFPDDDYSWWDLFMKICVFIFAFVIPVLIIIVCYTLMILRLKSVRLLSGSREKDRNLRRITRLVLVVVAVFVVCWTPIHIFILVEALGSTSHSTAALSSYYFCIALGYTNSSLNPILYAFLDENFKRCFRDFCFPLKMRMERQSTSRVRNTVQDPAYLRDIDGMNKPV

[6] = biological target: T3, μ-opioid receptor (MOR) fused to Gαi1 protein (MOR-Gi1) (Homo sapiens, UniProt P35372+P63096); test: ADSoRB screen with radiolabeled agonist tracer at MOR-Gi1 microsomes; format: binding
T3 construct: expressed in transfected cells; host or cells: HEK293 suspension cells, microsomal membranes
T3 sequence (P35372+P63096 fused): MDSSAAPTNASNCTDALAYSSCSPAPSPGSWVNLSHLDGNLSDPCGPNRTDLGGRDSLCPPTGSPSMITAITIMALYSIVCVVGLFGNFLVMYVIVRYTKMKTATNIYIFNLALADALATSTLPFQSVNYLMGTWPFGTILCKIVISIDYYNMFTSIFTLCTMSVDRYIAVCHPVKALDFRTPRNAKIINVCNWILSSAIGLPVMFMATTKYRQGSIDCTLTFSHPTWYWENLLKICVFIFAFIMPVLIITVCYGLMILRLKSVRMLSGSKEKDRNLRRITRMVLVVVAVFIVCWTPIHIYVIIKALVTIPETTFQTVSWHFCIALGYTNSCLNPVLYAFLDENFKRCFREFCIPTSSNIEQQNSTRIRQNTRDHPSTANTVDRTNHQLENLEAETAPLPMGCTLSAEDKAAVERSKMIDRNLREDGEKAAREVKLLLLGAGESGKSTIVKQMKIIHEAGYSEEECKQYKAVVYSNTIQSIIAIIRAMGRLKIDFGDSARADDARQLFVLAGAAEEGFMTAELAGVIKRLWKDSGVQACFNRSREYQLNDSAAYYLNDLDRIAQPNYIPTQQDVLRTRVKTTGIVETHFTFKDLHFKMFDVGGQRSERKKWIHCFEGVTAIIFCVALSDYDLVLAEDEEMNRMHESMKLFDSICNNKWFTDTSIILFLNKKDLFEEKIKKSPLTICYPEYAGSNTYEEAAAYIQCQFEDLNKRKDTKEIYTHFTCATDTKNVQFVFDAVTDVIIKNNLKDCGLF

[7] = biological target: T4, mu-opioid receptor unfused (MOR) (Homo sapiens, UniProt P35372); format: binding
T4 construct: expressed in transfected cells
T4 sequence (P35372 whole entry, the tested form may be a part): as the sequence (P35372 whole entry) above

C[C@@H](NC(=O)[C@@H](N)Cc1ccc(O)cc1)C(=O)NCC(=O)N(C)[C@@H](Cc1ccccc1)C(=O)NCCO [DAMGO]
affinity shift vs unfused MOR (in words) [1]: shift compared to unfused MOR | binding to and GPPNHP elution from membranes (in words) [2]: ability to bind and elute

NCCc1c[nH]c2ccc(O)cc12 [5-HT]
calcium release (in words) (HEK293 cells): do not cause calcium release | G protein activation ([35S]GTPγS loading, in words) [3]: only seen at the Gi fusion | BRET response (in words) [4]: reliable and substantial serotonin response

Leu-enkephalin
affinity shift vs unfused MOR (in words) [1]: shift compared to unfused MOR

COc1ccsc1CNCC[C@@]1(c2ccccn2)CCOC2(CCCC2)C1 [TRV130]
affinity shift vs unfused MOR (in words) [1]: shift compared to unfused MOR

COC(=O)/C=C/C(=O)N[C@@H]1CC[C@@]2(O)[C@H]3Cc4ccc(O)c5c4[C@@]2(CCN3CC2CC2)[C@H]1O5 [β-FNA]
effect on maximal efficacy (Emax) (μ-opioid receptor (MOR)): strong inhibition of maximal efficacy | effect on potency (μ-opioid receptor (MOR)): minimal effect on potency

CCN(CC)C(=O)N[C@H]1C=C2c3cccc4[nH]cc(c34)C[C@H]2N(C)C1 [Lisuride]
calcium release (in words) (HEK293 cells): do not cause calcium release

COc1cc(CC(C)N)c(OC)cc1I (centres unmarked) [DOI]
calcium release (in words) (HEK293 cells): do not cause calcium release

COC(=O)N1CCN(C(=O)Cc2ccc(Cl)c(Cl)c2)C(CN2CCCC2)C1 (centres unmarked) [GR89,696]
efficacy across transducers (in words) [5]: activated all transducers with equal efficacy

C[C@@H](NC(=O)[C@@H](N)Cc1ccc(O)cc1)C(=O)NCC(=O)N(C)[C@@H](Cc1ccccc1)C(=O)NCCO [[3H]DAMGO]
elution upon complex dissociation/uncoupling with GPPNHP ([6]; GPPNHP elution): 30 % of total agonist added | elution with buffer control ([6]; buffer elution): 2 % of total agonist added | elution upon complex dissociation with GPPNHP [7]: 0.8 % of total | unbound tracer [7]: 67% | unbound tracer ([2]; MOR-Gi1RLuc complex): 23% | elution upon complex dissociation with GPPNHP ([2]; high affinity MOR-Gi1RLuc complex): 7 % of total | binding to and GPPNHP elution from membranes (in words) ([2]; listed as [^3H]DAMGO): binds more strongly to the MOR-Gαi1 complex; also recorded: elutes to a greater extent

O=C(c1ccccn1)N(Cc1cccs1)C1(C(=O)NC2CCCCC2)CCCCC1 [ML139]
efficacy across transducers (in words) [5]: activated all transducers with equal efficacy
